Experimental data taken from patent publication US11512090B2, “Muscarinic acetylcholine M1 receptor antagonists” (PIPELINE THERAPEUTICS, INC., priority 2018, dated 2022).
Read-outs that look alike come from different tables or passages of the source.

Columns and labels:
Format in all cases: cell-based
human M1 receptor = biological target: T1, human M1 receptor (Homo sapiens, UniProt P11229); assay: In vitro functional assay of muscarinic acetylcholine receptor activity (aequorin calcium flux, antagonist mode vs EC80 acetylcholine), M1
T1 sequence (P11229 1-460): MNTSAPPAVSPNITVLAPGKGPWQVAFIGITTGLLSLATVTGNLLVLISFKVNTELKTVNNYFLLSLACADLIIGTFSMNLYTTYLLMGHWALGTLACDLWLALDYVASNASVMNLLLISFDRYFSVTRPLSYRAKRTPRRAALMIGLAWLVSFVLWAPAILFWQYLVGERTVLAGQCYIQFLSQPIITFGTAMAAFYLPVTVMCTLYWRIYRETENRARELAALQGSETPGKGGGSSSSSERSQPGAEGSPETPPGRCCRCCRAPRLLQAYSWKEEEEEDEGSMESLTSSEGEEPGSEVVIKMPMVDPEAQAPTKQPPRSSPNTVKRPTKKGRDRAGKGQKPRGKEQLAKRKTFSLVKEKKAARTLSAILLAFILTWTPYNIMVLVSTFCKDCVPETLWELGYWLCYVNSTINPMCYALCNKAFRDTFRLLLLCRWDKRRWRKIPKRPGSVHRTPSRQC
Procedure, shortened: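 CHO-K1 cells stably co-expressing human M1 and aequorin were loaded with 5 uM coelenterazine h for 4 h at room temperature in the dark. IC50 came from the drop in luminescence.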

M2 = biological target: T2, M2 (Homo sapiens, UniProt P08172); assay: In vitro functional assay of muscarinic acetylcholine receptor activity, M2
T2 sequence (P08172 1-466): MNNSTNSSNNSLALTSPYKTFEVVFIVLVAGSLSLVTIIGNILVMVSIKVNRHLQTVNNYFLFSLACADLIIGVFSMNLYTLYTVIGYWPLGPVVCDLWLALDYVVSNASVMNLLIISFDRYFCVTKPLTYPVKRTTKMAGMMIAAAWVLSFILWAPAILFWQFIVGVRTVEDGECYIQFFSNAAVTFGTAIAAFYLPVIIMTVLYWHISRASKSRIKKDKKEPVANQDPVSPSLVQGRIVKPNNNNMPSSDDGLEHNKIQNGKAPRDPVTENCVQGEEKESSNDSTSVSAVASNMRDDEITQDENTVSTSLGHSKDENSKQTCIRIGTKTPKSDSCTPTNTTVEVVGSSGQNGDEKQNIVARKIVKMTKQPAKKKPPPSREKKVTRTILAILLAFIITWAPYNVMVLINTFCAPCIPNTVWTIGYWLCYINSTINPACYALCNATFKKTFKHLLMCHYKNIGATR

M3 = M3 (Homo sapiens, UniProt P20309); assay: In vitro functional assay of muscarinic acetylcholine receptor activity, M3
[1] = antagonist IC50 at M2, read-out: M2 IC50
[2] = antagonist IC50 at M3, read-out: M3 IC50
[3] = CHO-K1 cells stably expressing human M1 receptor with Aequorin, decrease in EC80 acetylcholine response, read-out: M1 IC50

M3, sequence (P20309 whole entry): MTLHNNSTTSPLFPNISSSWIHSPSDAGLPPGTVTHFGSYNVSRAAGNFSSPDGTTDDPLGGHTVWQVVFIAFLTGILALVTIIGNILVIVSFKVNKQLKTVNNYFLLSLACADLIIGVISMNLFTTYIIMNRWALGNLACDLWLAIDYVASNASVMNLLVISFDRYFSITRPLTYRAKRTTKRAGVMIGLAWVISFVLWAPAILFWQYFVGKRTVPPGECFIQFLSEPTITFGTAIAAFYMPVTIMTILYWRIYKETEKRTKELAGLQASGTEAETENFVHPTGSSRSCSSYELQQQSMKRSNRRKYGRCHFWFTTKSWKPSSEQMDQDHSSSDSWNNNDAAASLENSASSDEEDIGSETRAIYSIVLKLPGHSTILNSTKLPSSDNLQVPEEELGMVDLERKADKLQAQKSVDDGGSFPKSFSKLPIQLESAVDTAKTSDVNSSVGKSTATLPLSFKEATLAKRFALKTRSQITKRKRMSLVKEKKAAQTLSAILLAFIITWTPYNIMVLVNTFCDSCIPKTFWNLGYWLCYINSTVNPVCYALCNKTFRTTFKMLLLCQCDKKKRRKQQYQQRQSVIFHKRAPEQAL

Compound | IC50 (human M1 receptor) | IC50 (M2; [1]) | IC50 (M3; [2]) | IC50 (human M1 receptor; [3]) | IC50 (M3) | IC50 (M2)
N#Cc1ccc(N2C3CCC2CN(C(=O)COCCc2cccn4ncnc24)C3)nc1 [Example 180, 6-{3-[2-(2-{[1,2,4]triazolo[1,5-a]pyridin-8-yl}ethoxy)acetyl]-3,8-diazabicyclo[3.2.1]octan-8-yl}pyridine-3-carbonitrile] | < 0.1 µM | 1 to 10 µM | > 10 µM | – | – | –
O=C([C@H]1C[C@H](Oc2cccc3ncsc23)C1)N1CC2CCC(C1)N2c1ncc(Cl)cn1 [Example 64, ((1r,3R)-3-(benzo[d]thiazol-7-yloxy)cyclobutyl)((1R,5S)-8-(5-chloropyrimidin-2-yl)-3,8-diazabicyclo[3.2.1]octan-3-yl)methanone] | – | 1 to 10 µM | 1 to 10 µM | > 10 µM | – | –
Cc1cc(F)cnc1N1CCN(C(=O)CCCc2cccc3ncsc23)[C@@H](C)C1 [Example 81, (S)-4-(benzo[d]thiazol-7-yl)-1-(4-(5-fluoro-3-methylpyridin-2-yl)-2-methylpiperazin-1-yl)butan-1-one] | – | 0.1 to 1 µM | 1 to 10 µM | < 0.1 µM | – | –
N#Cc1ccc(N2C3CCC2CN(C(=O)C2CC(=Cc4cccc5cnccc45)C2)C3)nc1 (stereo not drawn) [Example 195, 6-(3-{3-[(isoquinolin-5-yl)methylidene]cyclobutanecarbonyl}-3,8-diazabicyclo[3.2.1]octan-8-yl)pyridine-3-carbonitrile] | – | 1 to 10 µM | 1 to 10 µM | 1 to 10 µM | – | –
N#Cc1cc(N2CCN(C(=O)CCCc3cccc4ncccc34)CC2)ccn1 [Example 70, 4-(4-(4-(quinolin-5-yl)butanoyl)piperazin-1-yl)picolinonitrile] | – | 0.1 to 1 µM | 1 to 10 µM | < 0.1 µM | – | –
N#Cc1ccc(N2C3COCC2CN(C(=O)CCCc2cccc4ncccc24)C3)nc1 [Example 154, 6-{7-[4-(quinolin-5-yl)butanoyl]-3-oxa-7,9-diazabicyclo[3.3.1]nonan-9-yl}pyridine-3-carbonitrile] | < 0.1 µM | 1 to 10 µM | – | – | 0.1 to 1 µM | –
Cc1cc(F)cnc1N1CCN(C(=O)CCCc2cccc3ncc(CO)cc23)[C@@H](C)C1 [Example 94, (S)-1-(4-(5-fluoro-3-methylpyridin-2-yl)-2-methylpiperazin-1-yl)-4-(3-(hydroxymethyl)quinolin-5-yl)butan-1-one] | – | 0.1 to 1 µM | 1 to 10 µM | 0.1 to 1 µM | – | –
N#Cc1ccc(N2C3CCC2CN(C(=O)CCNCc2cccc4ncsc24)C3)nc1 [Example 29, 6-[3-(3-{[(1,3-benzothiazol-7-yl)methyl]amino}propanoyl)-3,8-diaza-bicyclo[3.2.1]octan-8-yl]pyridine-3-carbonitrile] | < 0.1 µM | 1 to 10 µM | 1 to 10 µM | – | – | –
O=C(CNCCc1cccc2ncsc12)N1CC2CCC(C1)N2c1ccncc1F [Example 15, 2-[[2-(1,3-benzothiazol-7-yl)ethyl]amino]-1-[8-(3-fluoropyridin-4-yl)-3,8-diazabicyclo[3.2.1]octan-3-yl]ethan-1-one] | 0.1 to 1 µM | 1 to 10 µM | > 10 µM | – | – | –
Cc1cc(Cl)cnc1N1CCN(C(=O)CCNCc2cccc3nccn23)[C@H](C)C1 [Example 123, 1-[(2R)-4-(5-chloro-3-methylpyridin-2-yl)-2-methylpiperazin-1-yl]-3-[({imidazo[1,2-a]pyridin-5-yl}methyl)amino]propan-1-one] | – | > 10 µM | 1 to 10 µM | 1 to 10 µM | – | –
O=C(COCc1cccc2ncsc12)N1C[C@H]2CC[C@@H](C1)N2c1ccncc1F [Example 86, 2-(benzo[d]thiazol-7-ylmethoxy)-1-((1R,5S)-8-(3-fluoropyridin-4-yl)-3,8-diazabicyclo[3.2.1]octan-3-yl)ethan-1-one] | – | 1 to 10 µM | > 10 µM | 1 to 10 µM | – | –
O=C(CCCc1cccc2ncccc12)N1C[C@H]2C[C@@H]1CN2c1ccc(F)cn1 (racemic) [Example 54, rac-1-((1R,4R)-5-(5-fluoropyridin-2-yl)-2,5-diazabicyclo[2.2.1]heptan-2-yl)-4-(quinolin-5-yl)butan-1-one] | – | 1 to 10 µM | > 10 µM | 0.1 to 1 µM | – | –
C[C@H]1CN(c2cnc(C(F)(F)F)nc2)CCN1C(=O)CCS(=O)(=O)c1cccc2ncsc12 [Example 115, (S)-3-(benzo[d]thiazol-7-ylsulfonyl)-1-(2-methyl-4-(2-(trifluoromethyl)pyrimidin-5-yl)piperazin-1-yl)propan-1-one] | – | > 10 µM | 1 to 10 µM | > 10 µM | – | –
N#Cc1ccc(N2C3CCC2CN(C(=O)CCN(Cc2cccc4ncnn24)C2COC2)C3)nc1 [Example 174, 6-(3-{3-[(oxetan-3-yl)({[1,2,4]triazolo[1,5-a]pyridin-5-yl}methyl)amino]propanoyl}-3,8-diazabicyclo[3.2.1]octan-8-yl)pyridine-3-carbonitrile] | 0.1 to 1 µM | > 10 µM | > 10 µM | – | – | –
Cc1cc(F)cnc1N1C[C@H]2C[C@@H]1CN2C(=O)CCCc1cccc2ncccc12 (racemic) [Example 53, rac-1-((1R,4R)-5-(5-fluoro-3-methylpyridin-2-yl)-2,5-diazabicyclo[2.2.1]heptan-2-yl)-4-(quinolin-5-yl)butan-1-one] | – | 1 to 10 µM | > 10 µM | 1 to 10 µM | – | –
N#Cc1ccc(N2C3COCC2CN(C(=O)CCS(=O)(=O)c2cccc4ncsc24)C3)nc1 [Example 133, 6-{7-[3-(1,3-benzothiazole-7-sulfonyl)propanoyl]-3-oxa-7,9-diazabicyclo[3.3.1]nonan-9-yl}pyridine-3-carbonitrile] | < 0.1 µM | – | > 10 µM | – | – | 0.1 to 1 µM
N#Cc1ccc(C2=CC3CCC(C2)N3C(=O)CCS(=O)(=O)c2cccc3ncsc23)nc1 (stereo not drawn) [Example 141, 6-{8-[3-(1,3-benzothiazole-7-sulfonyl)propanoyl]-8-azabicyclo[3.2.1]oct-2-en-3-yl}pyridine-3-carbonitrile] | 0.1 to 1 µM | 1 to 10 µM | > 10 µM | – | – | –
N#Cc1ccc(N2CC3CCC2CN3C(=O)CCNCc2cccc3ncsc23)nc1 (stereo not drawn) [Example 162, 6-[5-(3-{[(1,3-benzothiazol-7-yl)methyl]amino}propanoyl)-2,5-diazabicyclo[2.2.2]octan-2-yl]pyridine-3-carbonitrile] | – | 1 to 10 µM | 1 to 10 µM | 0.1 to 1 µM | – | –
O=C(CCS(=O)(=O)c1cccc2nccn12)N1CC2CCC(C1)N2c1ccc(Cl)cn1 [Example 143, 1-[8-(5-chloropyridin-2-yl)-3,8-diazabicyclo[3.2.1]octan-3-yl]-3-{imidazo[1,2-a]pyridine-5-sulfonyl}propan-1-one] | < 0.1 µM | 1 to 10 µM | 1 to 10 µM | – | – | –
Cc1cc(C#N)ncc1N1CCN(C(=O)CCS(=O)(=O)c2cccc3ncsc23)[C@@H](C)C1 [Example 25, 5-[(3S)-4-[3-(1,3-benzothiazole-7-sulfonyl)propanoyl]-3-methylpiperazin-1-yl]-4-methylpyridine-2-carbonitrile] | – | 0.1 to 1 µM | > 10 µM | < 0.1 µM | – | –
O=C(CCNCc1cccc2ncnn12)N1CC2CCC(C1)N2c1ccc(Br)cn1 [Example 156, 1-[8-(5-bromopyridin-2-yl)-3,8-diazabicyclo[3.2.1]octan-3-yl]-3-[({[1,2,4]triazolo[1,5-a]pyridin-5-yl}methyl)amino]propan-1-one] | 0.1 to 1 µM | 1 to 10 µM | 1 to 10 µM | – | – | –
N#Cc1ccc(N2C3CCC2CN(C(=O)CCNCc2c(F)ccc4nccn24)C3)nc1 [Example 34, 6-(3-{3-[({6-fluoroimidazo[1,2-a]pyridin-5-yl}methyl)amino]propanoyl}-3,8-diazabicyclo[3.2.1]octan-8-yl)pyridine-3-carbonitrile] | < 0.1 µM | 1 to 10 µM | 1 to 10 µM | – | – | –
N#Cc1ccc(N2C3CCC2CN(C(=O)CCS(=O)(=O)c2cccc4ncsc24)C3)nc1 [Example 24, 6-{3-[3-(1,3-benzothiazole-7-sulfonyl)propanoyl]-3,8-diazabicyclo[3.2.1]octan-8-yl}pyridine-3-carbonitrile] | < 0.1 µM | 0.1 to 1 µM | 0.1 to 1 µM | – | – | –
N#Cc1ccc(N2C3CCC2CN(C(=O)CCNCc2cccn4nccc24)C3)nc1 [Example 165, 6-(3-{3-[({pyrazolo[1,5-a]pyridin-4-yl}methyl)amino]propanoyl}-3,8-diazabicyclo[3.2.1]octan-8-yl)pyridine-3-carbonitrile] | 0.1 to 1 µM | 1 to 10 µM | 1 to 10 µM | – | – | –
